Reference: ChEMBL document CHEMBL1139965, “Synthesis and antifungal activities of new fluconazole analogues with azaheterocycle moiety” (2007)
Values after ≈ are worked out from the molar mass of the structure shown.

Legend:
[1] = system: Candida albicans; assay: Antifungal activity against Candida albicans CA980001 by alamar blue assay; assay type: functional
[2] = system: Aspergillus fumigatus; assay: Antifungal activity against Aspergillus fumigatus AF980003 by alamar blue assay; assay type: functional

Row | Structure (SMILES) | MIC [1] | MIC [2]
1 | OC(Cn1cncn1)(Cn1nc2ccccc2n1)c1ccc(Cl)cc1Cl (stereo unspecified) | 0.01 µg/mL (≈ 0.0257 µM) | > 100 µg/mL
2 | O[C@@](Cn1cncn1)(Cn1nnc2ccccc21)c1ccc(F)cc1F | 0.025 µg/mL (≈ 0.0702 µM) | > 100 µg/mL
3 | O[C@@](Cn1cncn1)(Cn1ncc2ccccc21)c1ccc(F)cc1F | 0.019 µg/mL (≈ 0.0535 µM) | 24 µg/mL (≈ 67.5 µM)
4 | O[C@@](Cn1cncn1)(Cn1ncc2ccccc21)c1ccc(Cl)cc1Cl | 0.0007 µg/mL (≈ 0.0018 µM) | > 100 µg/mL
5 | O[C@@](Cn1cncn1)(Cn1nnc2ccccc21)c1ccc(Cl)cc1Cl | 0.02 µg/mL (≈ 0.0514 µM) | > 100 µg/mL
6 | O[C@@](Cn1cncn1)(Cn1cnc2ccccc21)c1ccc(F)cc1F | 0.233 µg/mL (≈ 0.656 µM) | > 100 µg/mL
7 | O[C@@](Cn1cncn1)(Cn1cnc2ccccc21)c1ccc(Cl)cc1Cl | 0.026 µg/mL (≈ 0.067 µM) | > 100 µg/mL
8 | O[C@@](Cn1cncn1)(Cn1ccc2cccnc21)c1ccc(F)cc1F | 0.007 µg/mL (≈ 0.0197 µM) | 21 µg/mL (≈ 59.1 µM)
9 | O[C@@](Cn1cncn1)(Cn1ccc2cccnc21)c1ccc(Cl)cc1Cl | 0.0031 µg/mL (≈ 0.00798 µM) | 29 µg/mL (≈ 74.7 µM)
10 | O[C@](CN1CCc2ccccc21)(Cn1cncn1)c1ccc(Cl)cc1Cl | 2.72 µg/mL (≈ 6.99 µM) | > 100 µg/mL
11 | O[C@](CNc1ccc2[nH]ccc2c1)(Cn1cncn1)c1ccc(Cl)cc1Cl | 0.026 µg/mL (≈ 0.0646 µM) | > 100 µg/mL
12 | O=Cc1cn(C[C@@](O)(Cn2cncn2)c2ccc(Cl)cc2Cl)c2ccccc12 | 0.045 µg/mL (≈ 0.108 µM) | > 100 µg/mL
13 | CCOC(=O)Cc1cn(C[C@@](O)(Cn2cncn2)c2ccc(Cl)cc2Cl)c2ccccc12 | 0.006 µg/mL (≈ 0.0127 µM) | > 100 µg/mL
14 | CCOC(=O)CCc1cn(C[C@@](O)(Cn2cncn2)c2ccc(Cl)cc2Cl)c2ccccc12 | 0.33 µg/mL (≈ 0.677 µM) | > 100 µg/mL
15 | O=C1CCCc2c1ccn2C[C@@](O)(Cn1cncn1)c1ccc(Cl)cc1Cl | 0.07 µg/mL (≈ 0.173 µM) | > 100 µg/mL
16 | OC(Cn1cncn1)(Cn1nc2ccccc2n1)c1ccc(F)cc1F (stereo unspecified) | > 0.036 µg/mL | > 100 µg/mL
17 | C[C@@H]1[C@H](O)[C@@H](C)/C=C/C=C/C=C/C=C/C=C/C=C/C=C/[C@H](O[C@@H]2O[C@H](C)[C@@H](O)[C@H](N)[C@@H]2O)C[C@@H]2O[C@](O)(C[C@@H](O)C[C@@H](O)[C@H](O)CC[C@@H](O)C[C@@H](O)CC(=O)O[C@H]1C)C[C@H](O)[C@H]2C(=O)O [AMPHOTERICIN B] | 0.12 µg/mL (≈ 0.13 µM) | 0.14 µg/mL (≈ 0.152 µM)
18 | OC(Cn1cncn1)(Cn1cncn1)c1ccc(F)cc1F [FLUCONAZOLE] | 0.02 µg/mL (≈ 0.0653 µM) | 
19 | CCC(C)n1ncn(-c2ccc(N3CCN(c4ccc(OCC5COC(Cn6cncn6)(c6ccc(Cl)cc6Cl)O5)cc4)CC3)cc2)c1=O (stereo unspecified) [ITRACONAZOLE] |  | 0.5 µg/mL (≈ 0.709 µM)
